Data: patent US12559461B2, “Antibiotic adjuvant compounds” (UNIVERSITY OF NOTRE DAME DU LAC, priority 2020, dated 2026)
Read-outs that look alike come from different tables or passages of the source.

Assays:
Assay type in all cases: cell-based, Acinetobacter baumannii
AB5075 [1] = experiment: Broth microdilution MIC of compound alone (standalone toxicity); conditions: Acinetobacter baumannii
Experimental: (§1) Bacterial Strains and Antimicrobial Agents. Acinetobacter baumannii clinical isolate 5075 was obtained from Dr. Colin Manoil at the University of Washington. Colonies were grown on lysogeny broth (LB) agar. Cation-adjusted Mueller-Hinton Broth (CAMHB) (catalog number 212322) were purchased from BD Diagnostics. LB broth was purchased from Fisher Scientific (catalog number BP9722-2). […] Colistin sulfate salt (catalog number C4461) was purchased from Sigma Aldrich. All assays were completed in duplicate and repeated at least two separate times. All compounds were dissolved as their HCl salts in molecular biology grade DMSO as 10 or 100 mM stock solutions and stored at −20° C. Colistin was dissolved in sterile water while clarithromycin was dissolved in molecular biology grade DMSO.
(§2) Broth microdilution method for MIC determination. Day cultures (6 h) of each bacterial strain in cation adjusted Mueller Hinton II broth (CAMHB, Fisher Scientific U.S.) were subcultured to 5×10^5 CFU/mL in CAMHB. Aliquots (1 mL) were placed in culture tubes and compound was added from 10 mM stock samples in DMSO, such that compound concentration equaled highest concentration tested (200 μM). Samples were then aliquoted (200 μL) into the first wells of a 96-well plate, with all remaining wells being filled with 100 μL of initial bacterial subculture. Row one wells were mixed five times, before 100 μL was transferred to row two. Row two was then mixed five times, and 100 μL was transferred to row three. This process was repeated until the final row had been mixed; this served to serially dilute the compound. Plates were then covered with GLAD Press n'Seal and incubated under stationary conditions at 37° C. for 16 h. MIC values were then recorded as the lowest concentration at which no bacterial growth was observed.

AB5075 [2] = experiment: Broth microdilution clarithromycin (CLR) potentiation and dose-response of adjuvant
Experimental: as §1
(§3) Broth microdilution method for antibiotic potentiation. Day cultures (6 h) of bacteria in CAMHB were subcultured to 5×10^5 CFU/mL in CAMHB. Aliquots (4 mL) were placed in culture tubes and dosed with compound from 10 mM stock samples to give the desired concentration of the compound to be tested against the particular bacterial strain; this insured non-toxic DMSO concentrations ≤0.3% in each well. 1 mL of the resulting solution was placed in a separate culture and dosed with antibiotic at the highest concentration to be tested. Bacteria treated with antibiotic alone served as the control. Row one of a 96-well plate was filled with 200 μL of the antibiotic/2-AI solution, and rows 2-12 were filled with 100 μL each of the remaining 4 mL of bacterial subculture containing adjuvant at the desired concentration, except for the control lane which contained only bacterial subculture. Row one was then mixed five times, and 100 μL was transferred to row two, which was then mixed five times before being transferred to row three. This process was repeated until all rows had been mixed, except for row twelve which would have only 2-AI to serve as a control to monitor potential toxicity. The 96-well plate was then covered in Glad Press n'Seal and incubated under stationary conditions at 37° C. for 16 h. MIC values were determined as the lowest concentration at which no bacterial growth was observed, and fold reductions were determined by comparison to antibiotic control lane.
Dose-response of Adjuvant Assay. The procedure for ‘broth microdilution method for antibiotic potentiation’ was followed using 4 mL aliquots of adjuvant at various concentrations: 0, 5, 7.5, 10, 15, 20, 25, and 30 μM.

[3] = test system: A. baumannii isolates (23 strains); experiment: Clarithromycin potentiation against AB isolates; conditions: adjuvant at 7.5 μM
Experimental: as §3

[4] = test system: A. baumannii isolates (23 strains); experiment: Minimum inhibitory concentration against AB isolates; conditions: Acinetobacter baumannii, compound alone, read-out: Minimum inhibitory concentration of compound
Experimental: as §2

`Cl.Nc1nc(-c2ccc(NC(=O)c3ccc(Cl)c(C(F)(F)F)c3)cc2F)c[nH]1` [Compound 17b, N-(4-(2-amino-1H-imidazol-4-yl)-3-fluorophenyl)-4-chloro-3-(trifluoromethyl)benzamide hydrochloride] was tested, and the MIC (AB5075 [1]) was 50 µM, the “CLR MIC” value (AB5075 [2]; compound tested at 7.5 μM) was 8 µg/mL and the “Fold Reduction of CLR MIC” value (AB5075 [2]; compound tested at 7.5 μM) was 4 fold. The “CLR MIC” value (AB5075 [2]; compound tested at 10 μM) was 2 µg/mL, the “Fold Reduction of CLR MIC” value (AB5075 [2]; compound tested at 10 μM) was 16 fold and the “CLR MIC” value (AB5075 [2]; compound tested at 15 μM) was 0.25 µg/mL. For the same molecule, the “Fold Reduction of CLR MIC” value (AB5075 [2]; compound tested at 15 μM) was 128 fold.

In the case of `Cl.Nc1nc(-c2ccc(NC(=O)Nc3cc(Br)cc(Br)c3)cc2)c[nH]1` [Compound 20a, 1-(4-(2-amino-1H-imidazol-4-yl)phenyl)-3-(3,5-dibromophenyl)urea hydrochloride], the “CLR MIC + adjuvant” value ([3]; A. baumannii strain 3560) is reported as 1 µg/mL, the “CLR MIC + adjuvant” value ([3]; A. baumannii strain 3785) is reported as 1 µg/mL and the “CLR MIC + adjuvant” value ([3]; A. baumannii strain 3806) is reported as 0.25 µg/mL. The “CLR MIC + adjuvant” value ([3]; A. baumannii strain 3927) was 0.5 µg/mL, the “CLR MIC + adjuvant” value ([3]; A. baumannii strain 4025) was 1 µg/mL and the “CLR MIC + adjuvant” value ([3]; A. baumannii strain 4026) was 1 µg/mL. For the same molecule, the “CLR MIC + adjuvant” value ([3]; A. baumannii strain 4027) was 1 µg/mL, the “CLR MIC + adjuvant” value ([3]; A. baumannii strain 4052) was 0.5 µg/mL and the “CLR MIC + adjuvant” value ([3]; A. baumannii strain 4269) was 2 µg/mL. The “CLR MIC + adjuvant” value ([3]; A. baumannii strain 4448) was 0.5 µg/mL, the “CLR MIC + adjuvant” value ([3]; A. baumannii strain 4456) was 1 µg/mL and the “CLR MIC + adjuvant” value ([3]; A. baumannii strain 4490) was 1 µg/mL. The “CLR MIC + adjuvant” value ([3]; A. baumannii strain 4498) was 2 µg/mL, the “CLR MIC + adjuvant” value ([3]; A. baumannii strain 4795) was 0.5 µg/mL and the “CLR MIC + adjuvant” value ([3]; A. baumannii strain 4857) was 0.5 µg/mL. For the same molecule, the “CLR MIC + adjuvant” value ([3]; A. baumannii strain 4878) was 0.5 µg/mL, the “CLR MIC + adjuvant” value ([3]; A. baumannii strain 4957) was 0.5 µg/mL and the “CLR MIC + adjuvant” value ([3]; A. baumannii strain 4991) was 0.5 µg/mL. For the same molecule, the “CLR MIC + adjuvant” value ([3]; A. baumannii strain 5001) was 1 µg/mL, the “CLR MIC + adjuvant” value ([3]; A. baumannii strain 5197) was 1 µg/mL and the “CLR MIC + adjuvant” value ([3]; A. baumannii strain 5256) was 0.25 µg/mL. For the same molecule, the “CLR MIC + adjuvant” value ([3]; A. baumannii strain 5711) was 1 µg/mL, the “CLR MIC + adjuvant” value ([3]; A. baumannii strain 8967) was 0.25 µg/mL and the MIC (AB5075 [1]) was 50 µM. The MIC ([4]; A. baumannii strain 3560) was 25 µM, the MIC ([4]; A. baumannii strain 3785) was 50 µM and the MIC ([4]; A. baumannii strain 3806) was 25 µM. The MIC ([4]; A. baumannii strain 3927) was 100 µM, the MIC ([4]; A. baumannii strain 4025) was 100 µM and the MIC ([4]; A. baumannii strain 4026) was 50 µM. For the same molecule, the MIC ([4]; A. baumannii strain 4027) was 50 µM, the MIC ([4]; A. baumannii strain 4052) was 50 µM and the MIC ([4]; A. baumannii strain 4269) was 50 µM. It also gave an MIC ([4]; A. baumannii strain 4448) of 100 µM, an MIC ([4]; A. baumannii strain 4456) of 25 µM and an MIC ([4]; A. baumannii strain 4490) of 100 µM. For the same molecule, the MIC ([4]; A. baumannii strain 4498) was 50 µM, the MIC ([4]; A. baumannii strain 4795) was 25 µM and the MIC ([4]; A. baumannii strain 4857) was 50 µM. For the same molecule, the MIC ([4]; A. baumannii strain 4878) was 50 µM, the MIC ([4]; A. baumannii strain 4957) was 50 µM and the MIC ([4]; A. baumannii strain 4991) was 50 µM. For the same molecule, the MIC ([4]; A. baumannii strain 5001) was 50 µM, the MIC ([4]; A. baumannii strain 5197) was 25 µM and the MIC ([4]; A. baumannii strain 5256) was 25 µM. The MIC ([4]; A. baumannii strain 5711) was 25 µM, the MIC ([4]; A. baumannii strain 8967) was 100 µM and the “CLR MIC” value (AB5075 [2]; compound tested at 5 μM) was 4 µg/mL. For the same molecule, the “Fold Reduction of CLR MIC” value (AB5075 [2]; compound tested at 5 μM) was 8 fold, the “CLR MIC” value (AB5075 [2]; compound tested at 7.5 μM) was 0.25 µg/mL and the “Fold Reduction of CLR MIC” value (AB5075 [2]; compound tested at 7.5 μM) was 128 fold. For the same molecule, the “CLR MIC” value (AB5075 [2]; compound tested at 15 μM) was 0.125 µg/mL and the “Fold Reduction of CLR MIC” value (AB5075 [2]; compound tested at 15 μM) was 256 fold.

In the case of `Cl.Nc1nc(-c2ccc(NC(=O)Nc3cc(Cl)cc(Cl)c3)cc2)c[nH]1` [Compound 20b, 1-(4-(2-amino-1H-imidazol-4-yl)phenyl)-3-(3,5-dichlorophenyl)urea hydrochloride], the MIC (AB5075 [1]) is reported as 25 µM, the “CLR MIC” value (AB5075 [2]; compound tested at 5 μM) is reported as 8 µg/mL and the “Fold Reduction of CLR MIC” value (AB5075 [2]; compound tested at 5 μM) is reported as 4 fold. The “CLR MIC” value (AB5075 [2]; compound tested at 7.5 μM) was 0.5 µg/mL and the “Fold Reduction of CLR MIC” value (AB5075 [2]; compound tested at 7.5 μM) was 64 fold.

For `Cl.Nc1nc(-c2ccc(NC(=O)Nc3ccc(Cl)c(Cl)c3)cc2)c[nH]1` [Compound 20c, 1-(4-(2-amino-1H-imidazol-4-yl)phenyl)-3-(3,4-dichlorophenyl)urea hydrochloride], the MIC (AB5075 [1]) was 100 µM, the “CLR MIC” value (AB5075 [2]; compound dosed at higher concentrations (≥20 μM)) was ≤ 0.0625 µg/mL and the “CLR MIC” value (AB5075 [2]; compound tested at 5 μM) was 8 µg/mL. The “Fold Reduction of CLR MIC” value (AB5075 [2]; compound tested at 5 μM) was 4 fold, the “CLR MIC” value (AB5075 [2]; compound tested at 7.5 μM) was 2 µg/mL and the “Fold Reduction of CLR MIC” value (AB5075 [2]; compound tested at 7.5 μM) was 16 fold. For the same molecule, the “CLR MIC” value (AB5075 [2]; compound tested at 10 μM) was 0.25 µg/mL, the “Fold Reduction of CLR MIC” value (AB5075 [2]; compound tested at 10 μM) was 128 fold and the “CLR MIC” value (AB5075 [2]; compound tested at 20 μM) was ≤0.0625 µg/mL. The “Fold Reduction of CLR MIC” value (AB5075 [2]; compound tested at 20 μM) was ≥512 fold.
